One may read the IC50 as the midpoint of a concentration-inhibition curve. Read a low IC50 as greater potency. One may read the EC50 as the concentration giving half of the maximal effect.

Here are results for one compound from article PMC5805526, “ZB716, a steroidal selective estrogen receptor degrader (SERD), is orally efficacious in blocking tumor growth in mouse xenograft models” (Oncotarget, 2018).

Data set [1] has as its system T47D/Y537S breast cancer cells. As to the kind of experiment: T47D/Y537S ESR1 mutant cell growth inhibition. The class given is cell-based. As to conditions: Homo sapiens, 120 h, 5 days treatment. The text has this: Wild-type ESR1, the Y537S ESR1 mutant were fused to a FLAG tag at their C-termini and cloned into the lentiviral vector pFLRu-FH [30]. Y537S mutation was first introduced into ESR1 using the QuikChange II XL Site-Directed Mutagenesis Kit (Agilent) with an ESR1-encoding plasmid (Accession number NM_000125.1, GeneCopoeia Inc.) as the template. […] To make lentiviral particles, pFLRu-FH vector DNAs (encoding ESR1(wt) and ESR1(Y537S)) were cotransfected with the packaging plasmids into HEK293T cells using Fugene 6 (Roche). At 48 hours post transfection, culture media containing different viruses were added to T47D cells in the presence of polybrene followed by 3-day puromycin selection for stable expression.
Viable cell numbers were counted with a Z Series Coulter Counter instrument (Beckman-Coulter) following manufacturer's instructions. […] IC50 values were obtained from dose-response curves for all treatments.

For data set [2], the target named is T1, mutant ER (Y537S ESR1) (Homo sapiens, UniProt P03372, Y537S).
T1 construct: added to the C terminus of full-length wild-type and mutant (Y537S) ESR1 by PCR amplification; expressed in transfected cells; host or cells: T47D, lentiviral transduction with pFLRu-FH and puromycin selection
T1 sequence (P03372 1-595 Y537S): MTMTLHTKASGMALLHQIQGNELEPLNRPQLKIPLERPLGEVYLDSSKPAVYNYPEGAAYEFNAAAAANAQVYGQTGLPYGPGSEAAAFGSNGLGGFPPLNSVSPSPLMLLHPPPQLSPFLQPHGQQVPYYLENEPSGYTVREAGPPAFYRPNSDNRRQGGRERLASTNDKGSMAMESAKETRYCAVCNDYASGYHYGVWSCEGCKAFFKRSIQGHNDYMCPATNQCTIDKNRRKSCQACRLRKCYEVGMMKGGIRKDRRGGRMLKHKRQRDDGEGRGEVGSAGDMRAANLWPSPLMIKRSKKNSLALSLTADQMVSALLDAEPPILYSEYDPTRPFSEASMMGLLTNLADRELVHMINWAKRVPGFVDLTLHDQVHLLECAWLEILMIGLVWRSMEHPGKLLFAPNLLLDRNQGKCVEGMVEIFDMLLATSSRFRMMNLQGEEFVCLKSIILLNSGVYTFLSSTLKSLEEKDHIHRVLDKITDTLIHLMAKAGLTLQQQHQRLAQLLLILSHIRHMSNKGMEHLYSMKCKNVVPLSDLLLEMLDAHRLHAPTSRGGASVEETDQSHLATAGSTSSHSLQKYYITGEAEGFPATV
As to the kind of experiment: ER downregulation in T47D/Y537S cells (Wes Simple Western). The data set is classed as cell-based. As to conditions: four hours treatment, ERα normalized to actin; read-out: IC50, ER downregulation in T47D/Y537S cells. The text has this:
(§1) IC50 values were obtained from dose-response curves for all treatments.

Data set [3] has as its system mutant ER (Y537S ESR1). The description is as above. As to conditions: T47D/Y537S. The class given is cell-based.
Text: as §1

Data set [4] is described as follows: Drug concentrations in final plasma and tumor tissue of MCF-7 xenograft mice. The data set is classed as in vivo. As to conditions: for concentration at 3 weeks: female, Nu/Nu, mouse, end of study. The procedure:
The plasma samples of 100 μL each were processed for analysis by a TSQ UPLC-MS/MS system. Aliquots of 10 μL of 0.5 ng/μl E-Tamoxifen-2C^13, N^15, 200 μL methanol, and 400 μl chloroform were added to the plasma in a 1.5 mL centrifuge tube in sequence. The sample was vortexed and stored at −20°C for 4 hours, followed by sonication in a Branson B3510MT Ultrasonic Cleaners for 30 min and centrifuged at 12000 RPM on a Heraeus Fresco 21 Refrigerated Micro Centrifuge from Thermo Fisher Scientific for 10 min. The supernatant was dried with a nitrogen gas flow and suspended in 100 μL methanol. Aliquots of 10 μL of the above processed samples were injected into a TSQ Vantage mass spectrometer connected with a heated electrospray ionization probe and a Dionex Ultimat 3000 UHPLC with a Hypersil gold column (50×2.1 mm). The probe setting and front mass spectrometer setting were controlled as follows: spray voltage 3200 voltage, auxiliary gas 10psi, vaporizer temperature 365°C, capillary temperature 300°C, sheath gas 30psi, S-lens RF amplitude 51 voltage. The flow gradient was started with initial 30% mobile phase A of water with 0.05% formic acid to 1 min, to 100% mobile phase B of acetonitrile with 0.05% formic acid at 8 min, and return to 30% mobile phase A at 13 min.

The test system of data set [5] is TM00386 PDX ER+/PR+/HER2- invasive ductal carcinoma. As to the kind of experiment: Efficacy in patient derived xenograft (PDX) tumor model. The data set is classed as in vivo, NOD scid gamma (NSG) mice. (In general: In xenograft studies the graft and the host belong to different species.)
Data set [6] can be described thus: Tolerability in tumor bearing animals. As to conditions: all tumor bearing animals, different oral doses. The procedure:
Four to six weeks old female ovariectomized Nu/Nu mice were purchased from Charles River Laboratories (Wilmington, MA). MCF-7 cells were cultured and harvested in the exponential growth phase using a PBS/EDTA solution. The animals were injected bilaterally in the mammary fat pad (MFP) with 5×10^6 viable cells suspended in 50 μL sterile PBS mixed with 100 μL Matrigel (reduced factor; BD Biosciences, Bed- ford, MA). 17b-Estradiol pellets (0.72 mg, 60 day release; Innovative Research of America, Sarasota, FL) were implanted subcutaneously in the lateral area of the neck using a precision trochar (10 gages) at the time of cell injection. Tumors were allowed to form and at day 15 post cell injection […]. […] Tumor sizes were monitored and recorded every other day for three weeks of treatment duration.
In a patient-derived xenograft (PDX) mouse model in which the primary tumor donated by a postmenopausal patient was engrafted in NOD scid gamma (NSG™) mice (TM00386 PDX model, Jackson Lab). […] Tumor sizes were monitored and recorded every other day for three weeks of treatment duration.

Data set [7] deals with ERα. On the set-up: method as in PMID 27529700. As to conditions: read-out: binding affinity to ERα, EC50; cited from earlier work.

Entries after “also recorded” stand apart in the source; their conditions may differ. Like-named read-outs stand apart in the source and are kept apart here.

Compound `C[C@]12CC[C@@H]3c4ccc(B(O)O)cc4C[C@@H](CCCCCCCCC[S+]([O-])CCCC(F)(F)C(F)(F)F)[C@H]3[C@@H]1CC[C@@H]2O` (some centres unmarked) [ZB716] registered a half-inhibitory concentration (IC50) in data set [1] of 0.0244 µM. Moreover, the DC50 in data set [2] came to 0.024 µM. Besides, in data set [3], the “drug concentration for 50% downregulation of mutant ER relative to wild type” value is given as “about 10 times”. Besides, in data set [4] (ZB716 10 mg/kg dose group), the “drug accumulation in tumor tissue relative to fulvestrant treated mice” value is listed as 4 fold. The “final plasma concentration relative to fulvestrant treatment group” value is “over 6 fold” in data set [4] (ZB716 10 mg/kg dose group) and over 20 fold in data set [4] (ZB716 30 mg/kg dose group). The “drug concentration in tumor tissue relative to fulvestrant treated mice” value in data set [4] (ZB716 30 mg/kg dose group) is listed as 10 fold. The concentration at 3 weeks worked out at 182 ng/mL in data set [4] (plasma, treatment ZB716 10 mg/kg daily PO, read-out: Average concentration in final plasma); 692 ng/mL in data set [4] (plasma, treatment ZB716 30 mg/kg daily PO, read-out: Average concentration in final plasma); 506 ng/mL in data set [4] (tumor tissue, treatment ZB716 10 mg/kg daily PO, read-out: Average concentration in tumor tissue); 1540 ng/mL in data set [4] (tumor tissue, treatment ZB716 30 mg/kg daily PO, read-out: Average concentration in tumor tissue). The PDX tumor growth entry is reported as “as effectively as fulvestrant treatment” in data set [5] (ZB716 5 mg/kg PO daily); “effective in blocking tumor growth; also recorded: regression of tumor comparable to the fulvestrant group” in data set [5] (ZB716 at both doses (5 and 20 mg/kg PO daily)). Besides, the “PDX tumor growth inhibition” value in data set [5] (ZB716 20 mg/kg PO daily) is recorded as “greatest effect on tumor growth inhibition”. Besides, the animal body weights result in data set [6] is “no significant loss or increase of animal body weights”. Moreover, in data set [6], the “toxicities in the entire course of treatment” value is listed as “no apparent toxicities were observed”. Moreover, the EC50 in data set [7] is 0.0041 µM.
